Activity calls are given as the source filed them. No cut-off for these calls is given here.
Assays:
Cytomegalovirus = test: Antiviral activity against cytomegalovirus (CMV); no activity; assay type: functional, organism-based
[1] = tested on: Human immunodeficiency virus 1; test: Antiviral activity against human immunodeficiency virus(HIV-1); no activity; assay type: functional, organism-based
Human alphaherpesvirus 2 = test: Antiviral activity against herpes simplex virus (HSV-2); no activity; assay type: functional, organism-based
Human alphaherpesvirus 1 = test: Antiviral activity against herpes simplex virus (HSV-1); no activity; assay type: functional, organism-based
[2] = tested on: Human immunodeficiency virus 2; test: Antiviral activity against human immunodeficiency virus(HIV-2); no activity; assay type: functional, organism-based
Human alphaherpesvirus 3 = test: Antiviral activity against Varicella-Zoster virus (VZV); no activity; assay type: functional, organism-based
[3] = Half life at pH 3; assay type: ADME; settings: buffer

Nc1nc(O)c2ncn([C@H]3C=C[C@@H](OCP(=O)(O)O)OC3)c2n1
Activity (Cytomegalovirus): inactive | Activity [1]: inactive | Activity (Human alphaherpesvirus 2): inactive | Activity (Human alphaherpesvirus 1): inactive | Activity [2]: inactive | Activity (Human alphaherpesvirus 3): inactive

Nc1nc(O)c2ncn([C@H]3C=C[C@@H](OCP(=O)(O)O)CO3)c2n1
half-life [3]: 5 h

Nc1nc(O)c2ncn([C@@H]3C=C[C@H](OCP(=O)(O)O)OC3)c2n1
Activity (Cytomegalovirus): inactive | Activity [1]: inactive | Activity (Human alphaherpesvirus 2): inactive | Activity (Human alphaherpesvirus 1): inactive | Activity [2]: inactive | Activity (Human alphaherpesvirus 3): inactive

Reference: ChEMBL document CHEMBL1128645, “Synthesis and antiviral activity of phosphonate derivatives of enantiomeric dihydro-2H-pyranyl nucleosides” (Bioorg Med Chem Lett, 1995)
